The record followed here is patent publication US12122761B2, “2-azaspiro[3.4]octane derivatives as M4 agonists” (NOVARTIS AG, priority 2019, dated 2024).

What all share (type): cell-based
In assay [1] the target is T1, human cloned CHRM2 receptor (M2_CHO cells) (Homo sapiens, UniProt P08172).
T1 construct: expressed in transfected cells; host or cells: CHO-K1
T1 sequence (P08172 1-466): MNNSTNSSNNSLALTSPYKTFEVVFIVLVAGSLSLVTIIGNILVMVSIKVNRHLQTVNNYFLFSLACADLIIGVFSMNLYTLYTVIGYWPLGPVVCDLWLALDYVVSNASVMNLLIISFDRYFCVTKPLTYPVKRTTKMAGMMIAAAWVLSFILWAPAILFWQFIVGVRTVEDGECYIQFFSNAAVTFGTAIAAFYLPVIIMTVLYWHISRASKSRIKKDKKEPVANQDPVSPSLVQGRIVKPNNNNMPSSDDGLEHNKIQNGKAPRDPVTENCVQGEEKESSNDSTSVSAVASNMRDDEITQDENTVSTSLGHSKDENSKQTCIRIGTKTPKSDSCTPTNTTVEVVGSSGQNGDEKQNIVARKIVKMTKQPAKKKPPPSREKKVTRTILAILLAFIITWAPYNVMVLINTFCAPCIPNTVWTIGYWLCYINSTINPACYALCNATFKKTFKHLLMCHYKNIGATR
The experiment in a line: CHRM2 Ca++ Flux Assay (agonist mode, FDSS 7000EX). As to conditions: for Emax: Percent Activity measured to EC100 of Carbachol, read-out: M2 FDSS PA; for EC50: agonist mode, geometric mean if tested more than once, read-out: M2 FDSS EC50. A digest of the protocol: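 Agonist-mode Ca++ flux in CHO-K1 cells stably expressing human CHRM2, dye-loaded, then held 60 min at room temperature in buffer with 20 μM ATP before compound addition; traces read over 3 minutes. Four-parameter fit of triplicate wells; percent activity relative to Carbachol EC100.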

The target in assay [2] is T2, human cloned CHRM3 receptor (M3_CHO cells) (Homo sapiens, UniProt P20309).
T2 construct: expressed in transfected cells; host or cells: CHO-K1
In words: CHRM3 Ca++ Flux Assay (agonist mode, FDSS 7000EX). The following applies: for Emax: Percent Activity measured to EC100 of Carbachol, read-out: M3 FDSS PA; for EC50: agonist mode, geometric mean if tested more than once, read-out: M3 FDSS EC50. A digest of the protocol: (§1)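 Agonist-mode calcium flux: 11-point dose responses, triplicate wells, fluorescence followed for 3 minutes. Cells are M3_CHO or M5_CHO lines (human receptors) with Ca++ indicator in probenecid-containing HEPES/HBSS buffer. Percent activity is referenced to carbachol EC100, and curves come from four-parameter nonlinear regression.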

The target of assay [3] is T3, human cloned CHRM5 receptor (M5_CHO) (Homo sapiens, UniProt P08912).
T3 construct: expressed in transfected cells; host or cells: CHO (M5_CHO)
T3 sequence (P08912 1-532): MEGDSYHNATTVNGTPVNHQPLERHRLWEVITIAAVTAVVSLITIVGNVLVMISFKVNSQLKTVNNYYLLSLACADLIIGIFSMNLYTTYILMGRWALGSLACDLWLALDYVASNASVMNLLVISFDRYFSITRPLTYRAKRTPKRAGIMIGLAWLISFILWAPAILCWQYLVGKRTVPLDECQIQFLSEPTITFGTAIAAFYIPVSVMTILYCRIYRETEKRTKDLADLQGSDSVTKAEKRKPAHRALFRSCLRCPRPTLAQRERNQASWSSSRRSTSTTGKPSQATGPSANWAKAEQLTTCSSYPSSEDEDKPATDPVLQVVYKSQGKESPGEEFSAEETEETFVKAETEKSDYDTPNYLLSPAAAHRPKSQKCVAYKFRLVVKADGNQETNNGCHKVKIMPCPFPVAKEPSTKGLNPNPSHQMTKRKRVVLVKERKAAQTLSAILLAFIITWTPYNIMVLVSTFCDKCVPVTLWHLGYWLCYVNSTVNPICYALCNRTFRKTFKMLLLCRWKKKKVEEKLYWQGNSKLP
The experiment in a line: CHRM5 Ca++ Flux Assay (agonist mode, FDSS 7000EX). The following applies: for Emax: Percent Activity measured to EC100 of Carbachol, read-out: M5 FDSS PA; for EC50: agonist mode, geometric mean if tested more than once, read-out: M5 FDSS EC50. A digest of the protocol: as §1

T2 sequence (P20309 whole entry): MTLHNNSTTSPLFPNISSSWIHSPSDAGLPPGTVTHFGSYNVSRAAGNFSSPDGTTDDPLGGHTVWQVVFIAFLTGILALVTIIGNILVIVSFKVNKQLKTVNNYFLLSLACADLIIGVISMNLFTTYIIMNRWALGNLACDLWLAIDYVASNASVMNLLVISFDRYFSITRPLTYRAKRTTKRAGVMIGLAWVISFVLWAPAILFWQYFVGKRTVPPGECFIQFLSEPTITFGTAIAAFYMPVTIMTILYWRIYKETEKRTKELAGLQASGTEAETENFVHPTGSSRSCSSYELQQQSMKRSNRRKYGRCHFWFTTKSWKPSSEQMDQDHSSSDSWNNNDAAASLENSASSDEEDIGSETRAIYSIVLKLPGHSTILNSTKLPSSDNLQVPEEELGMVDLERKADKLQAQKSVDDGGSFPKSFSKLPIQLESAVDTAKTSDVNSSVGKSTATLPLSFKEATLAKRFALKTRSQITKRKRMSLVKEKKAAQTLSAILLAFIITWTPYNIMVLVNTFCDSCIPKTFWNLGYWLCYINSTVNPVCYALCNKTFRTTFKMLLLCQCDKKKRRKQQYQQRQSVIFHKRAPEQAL

Take `COCCOc1ccccc1C1CCN([C@@H]2CCC3(C2)CN(c2ncns2)C3)CC1` [Example 3J, (R)-5-(6-(4-(2-(2-methoxyethoxy)phenyl)piperidin-1-yl)-2-azaspiro[3.4]octan-2-yl)-1,2,4-thiadiazole]: the Emax in assay [1], in assay [2] and in assay [3] was 0% each time. The EC50 in assay [2] and in assay [3] was more than 25 µM throughout.

With `CC(C)(O)COc1ccccc1C1CCN([C@@H]2CCC3(C2)CN(c2ncns2)C3)CC1` [Example 3K, (R)-1-(2-(1-(2-(1,2,4-thiadiazol-5-yl)-2-azaspiro[3.4]octan-6-yl)piperidin-4-yl)phenoxy)-2-methylpropan-2-ol], the Emax in assay [1], in assay [2] and in assay [3] was 0% throughout. Besides, the EC50 in assay [2] and in assay [3] was more than 25 µM each time.

For `CC(C)(O)CCOc1ccccc1C1CCN([C@@H]2CCC3(C2)CN(c2ncns2)C3)CC1` [Example 3L, (R)-4-(2-(1-(2-(1,2,4-thiadiazol-5-yl)-2-azaspiro[3.4]octan-6-yl)piperidin-4-yl)phenoxy)-2-methylbutan-2-ol], the Emax in assay [1], in assay [2] and in assay [3] was 0% each time. Further, the EC50 in assay [2] and in assay [3] was more than 25 µM each time.

On to `COc1ccccc1C1CCN([C@@H]2CCC3(C2)CN(c2nc(C)ns2)C3)CC1` [Example 3M, (R)-5-(6-(4-(2-methoxyphenyl)piperidin-1-yl)-2-azaspiro[3.4]octan-2-yl)-3-methyl-1,2,4-thiadiazole], for which the Emax in assay [1], in assay [2] and in assay [3] was 0% each time. Further, the EC50 in assay [2] and in assay [3] was more than 25 µM each time.

Regarding `Fc1cncc(N2CC3(CC[C@@H](N4CCC(c5ccccc5C5CCOCC5)CC4)C3)C2)c1` [Example 5AA, (R)-2-(5-fluoropyridin-3-yl)-6-(4-(2-(tetrahydro-2H-pyran-4-yl)phenyl)piperidin-1-yl)-2-azaspiro[3.4]octane], the Emax in assay [1] was 28%; in assay [2] it was 0%; in assay [3], 0%. The values for the EC50 in assay [1], in assay [2] and in assay [3] were 1.77 µM, more than 25 µM and more than 25 µM, respectively.

As to `c1ccc(C2CCN([C@@H]3CCC4(C3)CN(c3cncnc3)C4)CC2)c(C2CCOCC2)c1` [Example 5BB, (R)-2-(pyrimidin-5-yl)-6-(4-(2-(tetrahydro-2H-pyran-4-yl)phenyl)piperidin-1-yl)-2-azaspiro[3.4]octane], the figures for the Emax in assay [1], in assay [2] and in assay [3] were 13%, 0% and 0%, respectively. For the same compound, the EC50 in assay [1] was 0.739 µM; in assay [2], more than 25 µM; in assay [3], more than 25 µM.

As for `Fc1ccc(N2CC3(CC[C@@H](N4CCC(c5ccccc5C5CCOCC5)CC4)C3)C2)cn1` [Example 5CC, (R)-2-(6-fluoropyridin-3-yl)-6-(4-(2-(tetrahydro-2H-pyran-4-yl)phenyl)piperidin-1-yl)-2-azaspiro[3.4]octane], the Emax worked out at 35% in assay [1], 0% in assay [2] and 0% in assay [3]. In addition, the EC50 in assay [1] is 0.466 µM; in assay [2] it was more than 25 µM; in assay [3], more than 25 µM.

In the case of `COc1ccccc1C1CCN([C@@H]2CCC3(C2)CN(c2cnc(C)cn2)C3)CC1` [Example 5DD, (R)-6-(4-(2-methoxyphenyl)piperidin-1-yl)-2-(5-methylpyrazin-2-yl)-2-azaspiro[3.4]octane], the Emax in assay [1], in assay [2] and in assay [3] was 0% each time. The EC50 in assay [1], in assay [2] and in assay [3] was more than 25 µM in each case.

For the compound `Cc1nccnc1N1CC2(CC[C@@H](N3CCC(c4ccccc4OCC(C)(C)O)CC3)C2)C1` [Example 5T, (R)-2-methyl-1-(2-(1-(2-(3-methylpyrazin-2-yl)-2-azaspiro[3.4]octan-6-yl)piperidin-4-yl)phenoxy)propan-2-ol], the Emax in assay [1], in assay [2] and in assay [3] was 0% in each case. In addition, the EC50 in assay [2] and in assay [3] was more than 25 µM throughout.

With `CC(C)(O)COc1ccccc1C1CCN([C@@H]2CCC3(C2)CN(c2ncncn2)C3)CC1` [Example 5U, (R)-1-(2-(1-(2-(1,3,5-triazin-2-yl)-2-azaspiro[3.4]octan-6-yl)piperidin-4-yl)phenoxy)-2-methylpropan-2-ol], the Emax in assay [1], in assay [2] and in assay [3] was 0% in each case. Also, the EC50 in assay [2] and in assay [3] was more than 25 µM in each case.

For the compound `COc1ccc(F)cc1C1CCN([C@@H]2CCC3(C2)CN(c2ccnnc2)C3)CC1` [Example 5V, (R)-6-(4-(5-fluoro-2-methoxyphenyl)piperidin-1-yl)-2-(pyridazin-4-yl)-2-azaspiro[3.4]octane], the Emax in assay [1], in assay [2] and in assay [3] was 0% in each case. Also, the EC50 in assay [2] and in assay [3] was more than 25 µM in each case.

`Fc1cccc(C2CCN([C@@H]3CCC4(C3)CN(c3cncnc3)C4)CC2)c1OC1COC1` [Example 5W, (R)-6-(4-(3-fluoro-2-(oxetan-3-yloxy)phenyl)piperidin-1-yl)-2-(pyrimidin-5-yl)-2-azaspiro[3.4]octane]: the Emax in assay [1] amounted to 16%; in assay [2] it was 0%; in assay [3] it was 0%. Besides, the EC50 in assay [1] was 0.057 µM; in assay [2] it was more than 25 µM; in assay [3] it was more than 25 µM.

With `COCCOc1ccccc1C1CCN([C@@H]2CCC3(C2)CN(c2cccnn2)C3)CC1` [Example 5X, (R)-6-(4-(2-(2-methoxyethoxy)phenyl)piperidin-1-yl)-2-(pyridazin-3-yl)-2-azaspiro[3.4]octane], the Emax in assay [1], in assay [2] and in assay [3] was 0% throughout. The EC50 in assay [2] and in assay [3] was more than 25 µM each time.

As to `COCCOc1ccccc1C1CCN([C@@H]2CCC3(C2)CN(c2cnc(C)cn2)C3)CC1` [Example 5Y, (R)-6-(4-(2-(2-methoxyethoxy)phenyl)piperidin-1-yl)-2-(5-methylpyrazin-2-yl)-2-azaspiro[3.4]octane], the Emax in assay [1], in assay [2] and in assay [3] was 0% throughout. For the same compound, the EC50 in assay [1] was less than 26 µM; in assay [2], more than 25 µM; in assay [3] it was more than 25 µM.

As to `COCCOc1ccccc1C1CCN([C@@H]2CCC3(C2)CN(c2ccnnc2)C3)CC1` [Example 5Z, (R)-6-(4-(2-(2-methoxyethoxy)phenyl)piperidin-1-yl)-2-(pyridazin-4-yl)-2-azaspiro[3.4]octane], the Emax in assay [1], in assay [2] and in assay [3] was 0% in each case. In addition, the EC50 in assay [2] and in assay [3] was more than 25 µM each time.

As to `COc1ccc(F)cc1C1CCN([C@@H]2CCC3(C2)CN(C(=O)C2COC2)C3)CC1` [Example 6A, (R)-(6-(4-(5-fluoro-2-methoxyphenyl)piperidin-1-yl)-2-azaspiro[3.4]octan-2-yl)(oxetan-3-yl)methanone], the Emax in assay [1] was determined as 10%; in assay [2], 0%; in assay [3] it was 0%. For the same compound, the results for the EC50 in assay [1] and in assay [3] were 0.032 µM and more than 25 µM, respectively.
